This is an account of results in patent US20080161583A1, “Epimerization methodologies for recovering stereoisomers in high yield and purity” (priority 2006, published 2008).

In brackets after ≈: the same amount, converted by molar mass.

A short description of this data set: Solubility of an epimer in a solvent at the epimerization temperature (saturated slurry, filtered sample, HPLC assay). The class given is physicochemical. The note with it: saturated slurry in denatured ethanol (2B-3), organic solvent or mixture, thermodynamic from solid. How it is done: The solubility of a first epimer in a solvent may be determined as follows. Sampling syringes and saturated slurry samples are pre-heated (or pre-chilled) to the desired epimerization temperature, e.g., 65 C or 70 C in some embodiments. The syringe is preheated (or pre-chilled) to the same temperature in a vessel containing only the solvent and the syringe. The syringes may be 5 ml disposable syringes. The saturated slurry samples are prepared by combining the solvent under investigation and enough of the purified first epimer to ensure that at least some precipitate is present so that the sample slurry is saturated. A purified epimer refers to an epimer having a purity of at least 85% by weight with respect to the total weight of epimers, preferably at least 90% by weight, more preferably at least 95% by weight. When both the sample and the syringe are at the desired temperature, 1.5 ml samples are quickly drawn into the syringe. The sampling syringes desirably acquire samples through a suitable filter to avoid bringing solids into the syringe. A 25 mm, 0.45 micron PTFE disk filter is suitable. 1 ml of each sample is blown down and then diluted in 10 ml of a solvent in which the epimer is fully soluble such as methanol. HPLC analysis is then performed to determine the amount of epimer in the diluted sample. […]

In the case of `CC1(C)COC2(CC[C@H](CC(C(=O)O)c3ccc(S(C)(=O)=O)c(Cl)c3)C2)OC1` (some centres unmarked) [R,R epimer], the solubility runs as follows: (65 C) 23.2 mg/mL (≈ 53.9 mM); (70 C) 27.1 mg/mL (≈ 62.8 mM).
